Results as given in US12714106B2 (Bayer Aktiengesellschaft, priority 2020, dated 2026).

Assays:
Type in all cases: in vivo
[1] = system: POLCO (Polygonum convolvulus); assay: Post-emergence greenhouse herbicide test, visual rating; details: 12.5 g/ha; post-emergence; 21 days after application
Procedure: (§1) Seeds of grass and broadleaf weeds were sown in pots (diameter: 7 cm) filled with a sandy loam soil. Following germination the plants were grown under optimal conditions up to a growth stage of BBCH 11 to 14 depending on species.
(§2) The applications were performed by post emergence treatments on the planted pots using a spray volume of 300 L water per hectare. The herbicides were applied alone and in combination as described.
(§3) The trial was conducted in the greenhouse ensuring optimal growing conditions.
(§4) The herbicidal effects were assessed 21 days following application by visual ratings comparing treated and untreated plants (0%=no effect to 100%=complete die-off).
(§5) The compounds of the formula (Ia), (Ib) and (I) were formulated as WP (wettable powder) formulation.
(§6) • BBCH=the BBCH code provides information about the morphological development stage of a plant. Officially, the abbreviation denotes the Biologische Bundesanstalt, Bundessortenamt and Chemische Industrie [Federal Biological Institute for Agriculture and Forestry, Federal Office for Crop Plant Varieties and Chemical Industry]. The range of BBCH 00-10 denotes the germination stages of the seeds until surface penetration. The range of BBCH 11-25 denotes the leaf development stages until stocking (corresponding to the number of tillers or side-shoots). In the Trials, the Following Biotypes of Broad-Leaved Weeds and Weed Grasses were Used: • ALOMY—sensitive (Alopecurus myosuroides) sensitive to customary herbicidally active compounds. • ALOMY_R (resistant) (Alopecurus myosuroides) resistant to herbicidally active compounds of the HRAC groups A and B; population mixture of field origin having increased metabolic resistance (IMR) and some target site resistance (TSR). • LOLRI—sensitive (Lolium rigidum) sensitive to customary herbicidally active compounds. • LOLRI_R (resistant) (Lolium rigidum) resistant to herbicidally active compounds of the HRAC groups A and B; population mixture of field origin having increased metabolic resistance (IMR) and some target site resistance (TSR). • AMAPA_R (resistant) (Amaranthus palmeri) resistant to herbicidally active compounds of the HRAC groups A and B; population mixture of field origin having increased metabolic resistance (IMR) and some target site resistance (TSR). • CHRVI (Chloris virgate) feather finger grass • KCHSC (Kochia scoparia) Mexican burning bush • MATIN (Matricaria inodora) false chamomile • POLCO (Polygonum convolvulus) black knotweed • ABUTH (Abutilon theophrasti) china jute • AMAPA (Amaranthus palmeri) palmer amaranth • BIDPI (Bidens pilosa) common blackjack • CHEAL (Chenopodium album) common lambsquarters • EPHHL (Euphorbia heterophylla) wild spurge • XANST (Xanthium strumarium) large cocklebur • EMEAU (Emex australis)—Cathead • GALAP (Gallium aparine)—Cleaver
(§7) The synergistic herbicidal activity was calculated using Colby's formula (cf. S. R. Colby; Weeds 15 (1967), 20-22): […]

[2] = system: EPHHL (Euphorbia heterophylla); assay: as above; details: post-emergence, 21 days after application
Procedure: as §1, §2, §3, §4, §5, §6, §7

[3] = system: LOLRI - sensitive (Lolium rigidum); assay: as above; details: post-emergence, 21 days after application
Procedure: as §1, §2, §3, §4, §5, §6, §7

[4] = system: ABUTH (Abutilon theophrasti); assay: as above; details: post-emergence, 21 days after application
Procedure: as §1, §2, §3, §4, §5, §6, §7

[5] = system: BID PI (Bidens pilosa); assay: as above; details: 25 g/ha single isomer; post-emergence; 21 days after application
Procedure: as §1, §2, §3, §4, §5, §6, §7

[6] = system: CHRVI (Chloris virgate); assay: as above; details: 12.5 g/ha; post-emergence; 21 days after application
Procedure: as §1, §2, §3, §4, §5, §6, §7

[7] = system: GALAP (Gallium aparine); assay: as above; details: 50 g/ha; post-emergence; 21 days after application
Procedure: as §1, §2, §3, §4, §5, §6, §7

[8] = system: KCHSC (Kochia scoparia); assay: as above; details: 12.5 g/ha; post-emergence; 21 days after application
Procedure: as §1, §2, §3, §4, §5, §6, §7

[9] = system: XANST (Xanthium strumarium); assay: as above; details: post-emergence, 21 days after application
Procedure: as §1, §2, §3, §4, §5, §6, §7

[10] = system: AMAPA-R (resistant) (Amaranthus palmeri); assay: as above; details: 25 g/ha single isomer; post-emergence; 21 days after application
Procedure: as §1, §2, §3, §4, §5, §6, §7

[11] = system: MATIN (Matricaria inodora); assay: as above; details: post-emergence, 21 days after application
Procedure: as §1, §2, §3, §4, §5, §6, §7

[12] = system: LOLRI_R (resistant) (Lolium rigidum); assay: as above; details: post-emergence, 21 days after application
Procedure: as §1, §2, §3, §4, §5, §6, §7

[13] = system: CHEAL (Chenopodium album); assay: as above; details: post-emergence, 21 days after application
Procedure: as §1, §2, §3, §4, §5, §6, §7

[14] = system: EMEAU (Emex australis); assay: as above; details: 50 g/ha; post-emergence; 21 days after application
Procedure: as §1, §2, §3, §4, §5, §6, §7

[15] = system: grass and broadleaf weeds; assay: Comparative testing of crystalline (I), (Ia), (Ib), summary of tables 3 to 6; details: (I) vs (Ia); (Ia) vs (Ib); see tables 3 to 6
Procedure: as §1, §2, §3, §4, §5, §7

SMILES	POLCO Observed [1]	EPHHL Observed ([2]; 25 g/ha single isomer)	EPHHL Observed ([2]; 50 g/ha single isomer)	LOLRI Observed ([3]; 6.25 g/ha)	LOLRI Observed ([3]; 12.5 g/ha)	ABUTH Observed ([4]; 25 g/ha single isomer)	ABUTH Observed ([4]; 50 g/ha single isomer)	BID PI Observed [5]	CHRVI Observed [6]	GALAP Observed [7]	KCHSC Observed [8]	XANST Observed ([9]; 25 g/ha single isomer)	XANST Observed ([9]; 50 g/ha single isomer)	XANST Observed ([9]; 100 g/ha single isomer)	AMAPA-R Observed [10]	MATIN Observed ([11]; 12.5 g/ha)	MATIN Observed ([11]; 25 g/ha)	MATIN Observed ([11]; 50 g/ha)	LOLRI_R Observed ([12]; 6.25 g/ha)	LOLRI_R Observed ([12]; 12.5 g/ha)	further results
C=C[C@]1(C(=O)N[C@H]2CO[C@@H](C(=O)OC)C2)CC(c2cc(F)cc(F)c2)=NO1 [(Ia), methyl(2R,4R)-4-[[(5S)-3-(3,5-difluorophenyl)-5-vinyl-4H-isoxazole-5-carbonyl]amino]-tetrahydrofuran-2-carboxylate]	85%	30%	35%	20%	90%	45%	60%	30%	35%	75%	70%	0%	20%	20%	35%	0%	0%	0%	15%	20%	LOLRI_R Observed ([12]; 25 g/ha): 30%; CHEAL Observed ([13]; 25 g/ha single isomer): 70%; EMEAU Observed [14]: 80%; herbicidal activity compared with the other crystalline forms [15]: superior in activity
C=C[C@]1(C(=O)N[C@@H]2CO[C@H](C(=O)OC)C2)CC(c2cc(F)cc(F)c2)=NO1 [(Ib), methyl(2S,4S)-4-[[(5S)-3-(3,5-difluorophenyl)-5-vinyl-4H-isoxazole-5-carbonyl]amino]-tetrahydrofuran-2-carboxylate]	40%	35%	35%	0%	0%	10%	20%	10%	20%	35%	40%	0%	10%	20%	25%	0%	0%	0%	0%	0%	LOLRI_R Observed ([12]; 25 g/ha): 0%; CHEAL Observed ([13]; 25 g/ha single isomer): 20%; CHEAL Observed ([13]; 50 g/ha single isomer): 60%; EMEAU Observed [14]: 45%
